SMILES strings stand for the structures. The source made the active and inactive calls.

The target of assay [1] is T1, Very long-chain specific acyl-CoA dehydrogenase, mitochondrial (Homo sapiens, UniProt P49748).
T1 sequence (P49748 whole entry): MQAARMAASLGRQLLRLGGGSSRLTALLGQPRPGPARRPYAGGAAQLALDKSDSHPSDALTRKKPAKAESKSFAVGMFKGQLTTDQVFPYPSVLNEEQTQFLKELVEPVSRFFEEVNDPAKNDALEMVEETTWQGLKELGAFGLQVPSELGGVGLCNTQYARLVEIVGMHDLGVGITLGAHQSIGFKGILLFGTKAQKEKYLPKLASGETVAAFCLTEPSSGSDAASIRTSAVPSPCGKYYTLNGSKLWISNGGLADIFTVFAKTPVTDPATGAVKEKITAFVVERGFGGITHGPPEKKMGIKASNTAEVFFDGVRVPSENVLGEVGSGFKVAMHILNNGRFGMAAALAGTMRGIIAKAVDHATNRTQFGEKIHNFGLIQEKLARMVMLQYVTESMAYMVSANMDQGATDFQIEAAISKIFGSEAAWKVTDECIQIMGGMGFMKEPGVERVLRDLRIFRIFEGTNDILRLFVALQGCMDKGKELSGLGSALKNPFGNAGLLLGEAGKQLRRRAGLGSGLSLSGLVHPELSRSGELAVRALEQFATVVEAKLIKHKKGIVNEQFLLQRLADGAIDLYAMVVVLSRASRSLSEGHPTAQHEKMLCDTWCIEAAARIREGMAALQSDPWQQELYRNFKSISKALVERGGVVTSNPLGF

Assay [2] concerns the target T2, Serine/threonine-protein kinase NLK (Homo sapiens, UniProt Q9UBE8).
T2 sequence (Q9UBE8 whole entry): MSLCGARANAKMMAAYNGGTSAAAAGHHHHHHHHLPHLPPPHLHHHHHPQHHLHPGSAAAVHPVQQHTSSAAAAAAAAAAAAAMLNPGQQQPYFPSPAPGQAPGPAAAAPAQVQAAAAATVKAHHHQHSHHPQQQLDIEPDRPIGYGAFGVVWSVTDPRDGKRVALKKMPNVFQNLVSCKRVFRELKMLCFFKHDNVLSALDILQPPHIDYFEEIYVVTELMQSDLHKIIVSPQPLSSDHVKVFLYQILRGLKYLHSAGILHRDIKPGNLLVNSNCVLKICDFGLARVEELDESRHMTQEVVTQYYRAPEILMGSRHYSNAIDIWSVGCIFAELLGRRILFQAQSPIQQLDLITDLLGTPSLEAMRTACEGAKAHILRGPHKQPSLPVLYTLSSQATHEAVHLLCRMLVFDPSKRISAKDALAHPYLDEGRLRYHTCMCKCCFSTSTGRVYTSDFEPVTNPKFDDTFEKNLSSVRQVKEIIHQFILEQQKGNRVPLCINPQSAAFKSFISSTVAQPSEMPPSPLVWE

The target in assay [3] is Mitogen-activated protein kinase kinase kinase kinase 1 (Homo sapiens, UniProt Q92918).
Assay [4] addresses T3, Dynamin-like GTPase OPA1, mitochondrial (Homo sapiens, UniProt O60313).
T3 sequence (O60313 whole entry): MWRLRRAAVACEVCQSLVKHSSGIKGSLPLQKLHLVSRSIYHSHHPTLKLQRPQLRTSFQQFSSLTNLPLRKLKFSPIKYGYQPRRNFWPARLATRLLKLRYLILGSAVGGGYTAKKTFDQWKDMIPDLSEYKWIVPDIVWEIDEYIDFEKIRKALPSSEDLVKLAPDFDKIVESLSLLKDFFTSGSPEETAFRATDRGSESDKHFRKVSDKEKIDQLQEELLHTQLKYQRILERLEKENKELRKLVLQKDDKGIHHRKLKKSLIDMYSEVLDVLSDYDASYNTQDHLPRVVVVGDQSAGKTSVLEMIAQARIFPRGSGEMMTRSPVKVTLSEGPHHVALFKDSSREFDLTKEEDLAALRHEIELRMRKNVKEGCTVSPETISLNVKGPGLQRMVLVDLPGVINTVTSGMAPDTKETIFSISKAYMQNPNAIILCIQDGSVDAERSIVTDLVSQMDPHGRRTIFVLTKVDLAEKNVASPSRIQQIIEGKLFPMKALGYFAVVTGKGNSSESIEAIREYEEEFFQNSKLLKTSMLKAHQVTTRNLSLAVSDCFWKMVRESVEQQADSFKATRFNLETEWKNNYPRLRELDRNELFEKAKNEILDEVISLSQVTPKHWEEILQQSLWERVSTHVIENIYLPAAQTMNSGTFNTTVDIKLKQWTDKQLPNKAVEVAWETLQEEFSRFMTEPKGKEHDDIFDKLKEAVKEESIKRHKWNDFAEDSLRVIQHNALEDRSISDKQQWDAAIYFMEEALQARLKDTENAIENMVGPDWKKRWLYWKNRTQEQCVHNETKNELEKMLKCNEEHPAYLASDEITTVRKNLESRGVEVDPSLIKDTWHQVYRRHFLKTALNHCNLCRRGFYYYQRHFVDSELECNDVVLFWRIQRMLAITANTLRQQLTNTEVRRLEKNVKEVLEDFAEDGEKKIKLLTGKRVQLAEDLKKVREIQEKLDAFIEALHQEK

Another assay concerns the target T4, Activin receptor type-1 (Homo sapiens, UniProt Q04771).
T4 sequence (Q04771 whole entry): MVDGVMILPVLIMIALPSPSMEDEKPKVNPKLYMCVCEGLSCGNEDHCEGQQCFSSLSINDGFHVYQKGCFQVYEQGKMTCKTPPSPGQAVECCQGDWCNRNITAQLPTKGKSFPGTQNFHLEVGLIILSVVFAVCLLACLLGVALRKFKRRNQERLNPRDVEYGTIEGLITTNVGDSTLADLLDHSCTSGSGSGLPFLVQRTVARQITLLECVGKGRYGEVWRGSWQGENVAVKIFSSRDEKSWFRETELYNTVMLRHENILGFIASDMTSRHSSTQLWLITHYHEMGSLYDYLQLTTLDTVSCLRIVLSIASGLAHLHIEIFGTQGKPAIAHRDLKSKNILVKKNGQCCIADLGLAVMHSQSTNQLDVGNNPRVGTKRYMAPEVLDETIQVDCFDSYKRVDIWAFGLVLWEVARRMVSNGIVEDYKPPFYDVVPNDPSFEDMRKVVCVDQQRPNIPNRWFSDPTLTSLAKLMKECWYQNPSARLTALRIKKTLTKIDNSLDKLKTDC

Assay [5] concerns the target Non-receptor tyrosine-protein kinase TYK2 (Homo sapiens, UniProt P29597).
The target of assay [6] is Structural maintenance of chromosomes protein 2 (Homo sapiens, UniProt O95347).
Further: in the data inactive means no Kd found up to 30 µM.

Non-receptor tyrosine-protein kinase TYK2, sequence (P29597 whole entry): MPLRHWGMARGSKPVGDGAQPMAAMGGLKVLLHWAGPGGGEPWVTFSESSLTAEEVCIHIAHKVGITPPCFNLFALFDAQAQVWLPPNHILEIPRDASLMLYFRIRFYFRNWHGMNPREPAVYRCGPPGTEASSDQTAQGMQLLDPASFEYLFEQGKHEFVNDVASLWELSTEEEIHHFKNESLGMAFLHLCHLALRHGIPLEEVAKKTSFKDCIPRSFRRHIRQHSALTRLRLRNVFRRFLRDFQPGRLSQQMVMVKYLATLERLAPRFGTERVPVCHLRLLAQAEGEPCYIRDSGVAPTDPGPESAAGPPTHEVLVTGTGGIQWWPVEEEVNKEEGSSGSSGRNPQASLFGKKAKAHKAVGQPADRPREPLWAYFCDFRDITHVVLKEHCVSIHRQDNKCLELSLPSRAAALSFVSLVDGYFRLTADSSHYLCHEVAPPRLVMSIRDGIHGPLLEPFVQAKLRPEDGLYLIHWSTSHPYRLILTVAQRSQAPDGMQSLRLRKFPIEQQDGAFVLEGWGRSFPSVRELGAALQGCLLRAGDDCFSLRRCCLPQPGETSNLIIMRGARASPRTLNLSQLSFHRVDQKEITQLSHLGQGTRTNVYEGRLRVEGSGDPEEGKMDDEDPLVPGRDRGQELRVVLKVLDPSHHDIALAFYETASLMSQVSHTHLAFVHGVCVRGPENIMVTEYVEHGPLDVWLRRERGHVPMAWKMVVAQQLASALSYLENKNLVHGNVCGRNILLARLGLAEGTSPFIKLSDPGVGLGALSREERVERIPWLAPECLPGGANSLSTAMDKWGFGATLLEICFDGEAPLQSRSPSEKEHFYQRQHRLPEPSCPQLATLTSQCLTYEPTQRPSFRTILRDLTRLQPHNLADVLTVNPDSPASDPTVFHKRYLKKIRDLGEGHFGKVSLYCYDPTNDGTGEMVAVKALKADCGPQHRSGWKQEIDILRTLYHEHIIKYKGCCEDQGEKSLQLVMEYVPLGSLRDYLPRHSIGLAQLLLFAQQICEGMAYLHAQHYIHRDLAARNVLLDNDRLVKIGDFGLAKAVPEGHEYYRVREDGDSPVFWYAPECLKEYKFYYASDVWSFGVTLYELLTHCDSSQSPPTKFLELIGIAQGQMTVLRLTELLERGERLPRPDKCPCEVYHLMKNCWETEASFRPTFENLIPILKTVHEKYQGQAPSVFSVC
Structural maintenance of chromosomes protein 2, sequence (O95347 whole entry): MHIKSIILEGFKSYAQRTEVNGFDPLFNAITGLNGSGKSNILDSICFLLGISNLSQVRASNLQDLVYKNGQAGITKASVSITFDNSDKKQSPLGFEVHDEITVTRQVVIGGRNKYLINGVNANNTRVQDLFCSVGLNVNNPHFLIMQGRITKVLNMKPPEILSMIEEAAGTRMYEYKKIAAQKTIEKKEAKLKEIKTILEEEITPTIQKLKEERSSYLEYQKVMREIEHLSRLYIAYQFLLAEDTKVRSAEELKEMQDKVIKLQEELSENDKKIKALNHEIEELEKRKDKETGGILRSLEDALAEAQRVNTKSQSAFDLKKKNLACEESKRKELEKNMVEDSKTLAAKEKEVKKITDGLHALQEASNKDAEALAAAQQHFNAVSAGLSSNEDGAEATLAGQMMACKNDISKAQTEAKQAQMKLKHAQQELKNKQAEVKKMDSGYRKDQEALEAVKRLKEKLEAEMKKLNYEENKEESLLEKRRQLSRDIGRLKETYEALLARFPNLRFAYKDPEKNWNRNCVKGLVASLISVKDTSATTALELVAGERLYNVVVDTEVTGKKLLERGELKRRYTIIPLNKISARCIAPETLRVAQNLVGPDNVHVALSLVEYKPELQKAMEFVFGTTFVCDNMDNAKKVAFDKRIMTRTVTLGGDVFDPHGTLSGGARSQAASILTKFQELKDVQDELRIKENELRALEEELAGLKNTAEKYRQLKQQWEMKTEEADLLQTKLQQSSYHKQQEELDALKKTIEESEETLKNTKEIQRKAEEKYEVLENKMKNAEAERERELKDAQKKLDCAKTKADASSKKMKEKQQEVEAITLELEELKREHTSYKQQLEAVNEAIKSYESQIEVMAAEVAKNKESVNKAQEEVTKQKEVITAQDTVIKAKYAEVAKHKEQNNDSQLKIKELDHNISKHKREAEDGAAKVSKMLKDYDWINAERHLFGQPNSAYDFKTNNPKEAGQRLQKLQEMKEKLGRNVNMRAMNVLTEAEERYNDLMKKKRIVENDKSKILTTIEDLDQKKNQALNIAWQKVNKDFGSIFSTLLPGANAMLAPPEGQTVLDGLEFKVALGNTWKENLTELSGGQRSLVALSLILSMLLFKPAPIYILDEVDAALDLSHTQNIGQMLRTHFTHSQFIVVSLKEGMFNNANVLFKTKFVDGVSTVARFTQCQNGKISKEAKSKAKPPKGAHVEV
Mitogen-activated protein kinase kinase kinase kinase 1, sequence (Q92918 whole entry): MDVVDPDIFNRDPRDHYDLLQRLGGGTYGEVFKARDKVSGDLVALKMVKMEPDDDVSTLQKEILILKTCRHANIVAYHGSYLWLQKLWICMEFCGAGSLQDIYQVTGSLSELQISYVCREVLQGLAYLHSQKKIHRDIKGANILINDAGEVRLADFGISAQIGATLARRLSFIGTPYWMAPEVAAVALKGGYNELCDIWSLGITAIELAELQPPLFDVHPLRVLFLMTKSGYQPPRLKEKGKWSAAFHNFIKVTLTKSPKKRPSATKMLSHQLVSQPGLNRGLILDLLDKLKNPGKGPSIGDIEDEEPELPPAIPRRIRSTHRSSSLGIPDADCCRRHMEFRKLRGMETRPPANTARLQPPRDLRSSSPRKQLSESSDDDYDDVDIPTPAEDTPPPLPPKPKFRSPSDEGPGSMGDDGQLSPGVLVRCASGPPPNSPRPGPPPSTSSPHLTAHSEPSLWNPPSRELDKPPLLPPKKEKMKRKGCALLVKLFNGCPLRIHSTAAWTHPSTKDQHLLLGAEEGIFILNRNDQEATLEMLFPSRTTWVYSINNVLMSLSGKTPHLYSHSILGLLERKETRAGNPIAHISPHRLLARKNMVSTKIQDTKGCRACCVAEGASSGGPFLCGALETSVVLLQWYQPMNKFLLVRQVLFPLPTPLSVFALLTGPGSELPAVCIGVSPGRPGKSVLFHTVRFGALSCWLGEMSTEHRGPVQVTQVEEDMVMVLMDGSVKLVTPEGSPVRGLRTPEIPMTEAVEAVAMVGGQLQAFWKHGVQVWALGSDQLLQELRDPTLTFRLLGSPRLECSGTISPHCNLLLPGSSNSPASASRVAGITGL

`CC(=O)c1cnc2ccc(-c3cc(Cl)c(O)c(Cl)c3)nc2c1N[C@H]1CC[C@H](CN(C)C)CC1`: the Kd in assay [1] was > 30 µM (inactive); in assay [2], 0.024 µM (active); in assay [3] it was > 30 µM (inactive); in assay [4], > 30 µM (inactive); on Activin receptor type-1 it was 0.222 µM (active); in assay [5], > 30 µM (inactive). Also, the Kd in assay [6] is > 30 µM (inactive).
Turning to `COc1cc(Nc2ncc3c(n2)-c2ccc(Cl)cc2C(c2c(F)cccc2OC)=NC3)ccc1C(=O)O` [ALISERTIB], the Kd (in assay [1]; in assay [2]; in assay [3]; in assay [4]; at Activin receptor type-1; in assay [6]) was > 30 µM (inactive) in each case.
Consider `Cc1nc(NC(=O)N2CCC[C@H]2C(N)=O)sc1-c1ccnc(C(C)(C)C(F)(F)F)c1` [ALPELISIB], for which the Kd (in assay [1]; in assay [4]; at Activin receptor type-1; in assay [5]; in assay [6]) was > 30 µM (inactive) each time.
Turning to `O=C(Nc1c[nH]nc1-c1nc2cc(CN3CCOCC3)ccc2[nH]1)NC1CC1` [AT-9283], the Kd was > 30 µM (inactive) in assay [1]; > 30 µM (inactive) in assay [2]; 0.214 µM (active) in assay [3]; > 30 µM (inactive) in assay [4]; 0.078 µM (active) on Activin receptor type-1; > 30 µM (inactive) in assay [6].
As to `CNC(=O)c1ccccc1Sc1ccc2c(/C=C/c3ccccn3)n[nH]c2c1` [AXITINIB], the Kd in assay [1], in assay [4] and in assay [6] was > 30 µM (inactive) in each case.
In the case of `NC(=O)Nc1cc(-c2cccc(F)c2)sc1C(=O)N[C@H]1CCCNC1` [AZD-7762], the Kd (in assay [1]; in assay [2]; in assay [4]; at Activin receptor type-1; in assay [5]; in assay [6]) was > 30 µM (inactive) throughout.
Take `CC(C)(C)c1nc(-c2cccc(NS(=O)(=O)c3c(F)cccc3F)c2F)c(-c2ccnc(N)n2)s1` [DABRAFENIB]: the Kd in assay [1], in assay [2], in assay [3], in assay [4] and in assay [6] was > 30 µM (inactive) throughout.
Regarding `Cn1cc(C2=C(c3cn(C4CCN(Cc5ccccn5)CC4)c4ccccc34)C(=O)NC2=O)c2ccccc21` [ENZASTAURIN], the Kd in assay [1], in assay [4] and in assay [6] was > 30 µM (inactive) throughout.
With `Cc1nc2cc(-n3ncc(C(=O)c4cc5ccccc5[nH]4)c3N)ccc2[nH]1` [FGFR INHIBITOR DEBIO 1347], the Kd (in assay [2]; in assay [3]; in assay [4]; at Activin receptor type-1; in assay [5]; in assay [6]) was > 30 µM (inactive) each time.
Turning to `O=C(Nc1nc2cccc(-c3ccc(CN4CCS(=O)(=O)CC4)cc3)n2n1)C1CC1` [FILGOTINIB], the Kd (in assay [1]; in assay [2]; in assay [3]; in assay [4]; on Activin receptor type-1; in assay [6]) was > 30 µM (inactive) in each case.
Turning to `C[C@@H](Oc1cc(-n2cnc3ccc(CN4CCN(C)CC4)cc32)sc1C(N)=O)c1ccccc1C(F)(F)F` [GSK-461364], the Kd in assay [1], in assay [4] and in assay [6] was > 30 µM (inactive) throughout.
Take `CCn1cc(-c2ccnc3[nH]c(-c4cccc(CN(C)C)c4)cc23)c(-c2ccc(NC(=O)N(C)C)cc2)n1` [GSK-1070916]: the Kd in assay [1], in assay [2], in assay [3], in assay [4] and in assay [6] was > 30 µM (inactive) in each case.
For `Cc1[nH]c(/C=C2\C(=O)Nc3ccccc32)c(C)c1CCC(=O)O` [ORANTINIB], the Kd is > 30 µM (inactive) in assay [1]; > 30 µM (inactive) in assay [2]; 2.02 µM (active) in assay [3]; > 30 µM (inactive) in assay [4]; > 30 µM (inactive) on Activin receptor type-1; > 30 µM (inactive) in assay [6].
For the compound `NC(=O)c1c(OCc2c(F)cc(Br)cc2F)nsc1NC(=O)NCCCCN1CCCC1` [OSI-632], the Kd in assay [1], in assay [2], in assay [3], in assay [4] and in assay [6] was > 30 µM (inactive) throughout.
For `CC(=O)NCC(=O)N1[C@@H]2CC[C@H]1c1ccc(Nc3ncc(C(F)(F)F)c(NC4CCC4)n3)cc12` [PF-03814735], the Kd in assay [1], in assay [2], in assay [3], in assay [4] and in assay [6] was > 30 µM (inactive) throughout.
As to `O=C(NOCCO)c1cc(CN2OCCCC2=O)c(F)c(F)c1Nc1ccc(I)cc1F` [RO-4987655], the Kd in assay [1], in assay [4] and in assay [6] was > 30 µM (inactive) in each case.
`N#CC[C@H](C1CCCC1)n1cc(-c2ncnc3[nH]ccc23)cn1` [RUXOLITINIB]: the Kd in assay [1], in assay [4] and in assay [6] was > 30 µM (inactive) in each case.
As for `Cn1ncc(Cl)c1-c1cc(C(=O)N[C@H](CN)Cc2ccc(F)c(F)c2)oc1Cl` [UPROSERTIB], the Kd (in assay [1]; in assay [2]; in assay [4]; at Activin receptor type-1; in assay [5]; in assay [6]) was > 30 µM (inactive) each time.
